Active and inactive are the calls of the source. The rule behind the calls is not given here.
How the values were obtained:
[1] = target: Aryl hydrocarbon receptor (Mus musculus) (UniProt P30561); assay: Antagonist activity at AHR in wild type mouse Hepa1c1c7 cells assessed as potentiation of UV-irradiation-induced apoptosis by measuring increase in caspase-3 activity at 0.1 to 1 uM incubated for 24 hrs before UV-irradiation for 24 hrs by caspase 3 Assay; settings: hepa1c1c7, 48 h
LA1 = assay: Potentiation of UV-irradiation-induced apoptosis in AHR deficient mouse LA1 cells assessed as increase in caspase-3 activity at 0.1 to 1 uM incubated for 24 hrs before UV-irradiation for 24 hrs by caspase 3 Assay; settings: dose 0.1-1 µM, time 48.0 hrs
[2] = target: Aryl hydrocarbon receptor (Mus musculus) (UniProt P30561); assay: Antagonist activity at AHR in wild type mouse Hepa1c1c7 cells assessed as reduction in inhibition of EGFR phosphorylation at 10 uM incubated for 24 hrs before UV-irradiation and measured after 30 mins by Western blot analysis; settings: hepa1c1c7, 24 h
[3] = target: Aryl hydrocarbon receptor (Mus musculus) (UniProt P30561); assay: Antagonist activity at AHR in wild type mouse Hepa1c1c7 cells assessed as reduction in inhibition of Akt/PKB phosphorylation at 10 uM incubated for 24 hrs before UV-irradiation and measured after 30 to 60 mins by Western blot analysis; settings: hepa1c1c7, 10 µM
[4] = Toxicity in AHR deficient mouse LA1 cells assessed as induction of apoptosis by measuring increase in caspase-3 activity at 0.1 to 1 uM incubated for 24 hrs in absence of UV-irradiation by caspase 3 Assay; settings: la1, 24 h

Chain of Aryl hydrocarbon receptor (Mus musculus) (P30561 whole entry, looked up): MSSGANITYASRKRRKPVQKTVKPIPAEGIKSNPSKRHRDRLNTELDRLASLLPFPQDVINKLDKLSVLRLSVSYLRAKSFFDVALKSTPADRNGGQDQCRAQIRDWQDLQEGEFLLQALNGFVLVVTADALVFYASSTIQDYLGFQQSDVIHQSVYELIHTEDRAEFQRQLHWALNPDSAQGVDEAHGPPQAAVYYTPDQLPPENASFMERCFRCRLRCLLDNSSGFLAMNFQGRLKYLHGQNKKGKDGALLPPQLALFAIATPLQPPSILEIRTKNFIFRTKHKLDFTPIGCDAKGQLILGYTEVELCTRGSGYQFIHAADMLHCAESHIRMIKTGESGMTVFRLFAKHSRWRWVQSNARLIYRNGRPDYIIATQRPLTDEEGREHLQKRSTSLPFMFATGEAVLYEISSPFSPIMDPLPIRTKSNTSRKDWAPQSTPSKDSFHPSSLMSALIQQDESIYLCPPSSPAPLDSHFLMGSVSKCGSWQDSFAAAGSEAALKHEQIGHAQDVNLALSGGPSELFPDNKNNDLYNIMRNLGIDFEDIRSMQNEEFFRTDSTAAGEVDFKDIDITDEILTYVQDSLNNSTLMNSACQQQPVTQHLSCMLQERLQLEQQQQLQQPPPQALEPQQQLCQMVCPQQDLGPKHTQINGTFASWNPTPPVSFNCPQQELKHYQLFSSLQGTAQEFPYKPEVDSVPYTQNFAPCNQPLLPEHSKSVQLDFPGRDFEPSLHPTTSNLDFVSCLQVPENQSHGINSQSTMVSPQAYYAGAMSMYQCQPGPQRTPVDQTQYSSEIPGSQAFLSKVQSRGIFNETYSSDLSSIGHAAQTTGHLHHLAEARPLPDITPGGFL

With COc1cc(-c2cc(=O)c3ccccc3o2)ccc1[N+](=O)[O-] the Activity [1] was “Active”, the Activity (LA1) was “Active” and the Activity [2] was “Active”. For the same molecule, the Activity [3] was “Active” and the Activity [4] was “Non-Toxic”.

From ChEMBL document CHEMBL5647681, “Lack of the aryl hydrocarbon receptor leads to impaired activation of AKT/protein kinase B and enhanced sensitivity to apoptosis induced via the intrinsic pathway” (J Pharmacol Exp Ther, 2007)
